The source of these data is US10246712B2, “Genetic or pharmacological reduction of PERK enhances cortical- and hippocampus-dependent cognitive function” (Carmel-Haifa University Economic Corp. Ltd, priority 2015, dated 2019).

Assay [1] deals with T1, PERK (Rattus norvegicus, UniProt Q9Z1Z1).
T1 construct: the PERK shRNA lentivirus was stereotacticaly injected to the IC of adult rats; from tissue; host or cells: insular cortex of adult male Wistar Hola rats, in vivo
T1 sequence (Q9Z1Z1 28-1108): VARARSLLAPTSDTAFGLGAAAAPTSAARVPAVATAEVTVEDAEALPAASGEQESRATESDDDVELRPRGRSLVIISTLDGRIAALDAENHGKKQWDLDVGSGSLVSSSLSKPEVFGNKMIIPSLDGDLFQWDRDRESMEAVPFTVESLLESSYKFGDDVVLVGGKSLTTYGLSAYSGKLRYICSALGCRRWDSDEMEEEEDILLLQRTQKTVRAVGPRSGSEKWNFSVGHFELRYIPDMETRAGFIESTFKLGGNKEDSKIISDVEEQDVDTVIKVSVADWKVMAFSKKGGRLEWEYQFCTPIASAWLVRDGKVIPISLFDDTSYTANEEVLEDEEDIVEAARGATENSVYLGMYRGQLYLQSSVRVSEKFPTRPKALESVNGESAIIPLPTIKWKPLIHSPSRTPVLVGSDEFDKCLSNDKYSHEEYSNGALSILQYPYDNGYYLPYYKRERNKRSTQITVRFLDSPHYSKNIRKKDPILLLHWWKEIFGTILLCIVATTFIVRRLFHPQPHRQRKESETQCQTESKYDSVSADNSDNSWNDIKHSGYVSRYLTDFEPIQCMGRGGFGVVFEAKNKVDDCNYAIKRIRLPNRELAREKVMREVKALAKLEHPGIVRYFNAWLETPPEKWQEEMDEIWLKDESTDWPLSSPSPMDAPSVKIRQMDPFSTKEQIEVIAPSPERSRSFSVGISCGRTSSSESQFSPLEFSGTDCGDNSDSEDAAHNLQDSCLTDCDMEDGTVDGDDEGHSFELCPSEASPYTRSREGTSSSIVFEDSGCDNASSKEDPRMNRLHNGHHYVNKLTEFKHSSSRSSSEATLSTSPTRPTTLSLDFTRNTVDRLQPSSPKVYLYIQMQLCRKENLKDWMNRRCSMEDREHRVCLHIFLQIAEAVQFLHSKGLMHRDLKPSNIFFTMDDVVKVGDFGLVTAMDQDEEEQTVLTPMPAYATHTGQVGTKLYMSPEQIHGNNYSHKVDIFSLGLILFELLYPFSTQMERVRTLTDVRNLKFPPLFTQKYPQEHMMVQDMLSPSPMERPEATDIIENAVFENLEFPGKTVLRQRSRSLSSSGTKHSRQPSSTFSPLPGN
It counts as in vivo. The following applies: 0.1% saccharin; 1 μl 100 nM into IC 20 min prior to novel taste; test day1; n=8.
Experimental: For virus infusions, rats were first anesthetized with Ketamine (120 mg/kg) and Xylazine (6 mg/kg) and placed into a stereotactic frame (Steolting Europe, Dublin—Ireland) (Using a 32-gauge stainless steel injector attached to a stereotactic infusion pump, rats received 1 μl of lentivirus encoding PERK shRNA or lentivirus harboring a scrambled sequence over 10 min into the insular cortex (anteroposterior, +1.2 mm relative to bregma; lateral, ±5.5 mm; ventral, −6.0 mm) according to the atlas of Paxinos, G. & Watson, C. (2006). The injector was lets in place for 5 min before and after infusion to minimize fluid retraction. The rats were allowed at least 7 days to recover from the surgery before any behavior experiments were conducted.
The rats were cannulated as described in Barki-Harrington et al. (2009). […]
The rats were separated into individual housing cages and underwent a 3-day water-restriction training session, in which once a day for 20 min, they were offered 20 ml of water from two pipettes, each containing 10 ml. […] The behavioral data are presented in terms of preference index, expressed as a percentage, [ml saccharin/(ml water plus ml saccharin)]×100, in which the quantities are those consumed during each test.

Assay [2] concerns pyramidal CA1 neurons. Briefly: Whole cell patch clamp recording of intrinsic neuronal properties. It counts as cell-based, mouse. The following applies: vs vehicle. How it is done: Mice were sacrificed by cervical dislocation and three hundred micrometer coronal brain slices were cut with a Campden-1000 Vibrotome. Slices were cut in ice-cold cutting solution containing (in mM) 110 sucrose, 60 NaCl, 3 KCl, 1.25 NaH2PO4, 28 NaHCO3, 0.5 CaCl2, 7 MgCl2, 5 glucose, and 0.6 ascorbate and recovered for 30 min at 37° C. in artificial cerebrospinal fluid (ACSF) containing (in mM) 125 NaCl, 2.5 KCl, 1.25 NaH2PO4, 25 NaHCO3, 25 D-glucose, 2 CaCl2, and 1 MgCl2, followed by additional recovery for 30 min in room-temperature ACSF. After initial recovery, slices were placed in a submerged chamber and maintained at 34° C. in ACSF (2 ml/min). All solutions were constantly carboxygenated with 95% O2+5% CO2.
Cells infected with PERK-shRNA- or scrambled sequence PERK shRNA (PERK-Scr)-containing AAV were identified by green fluorescence. Recordings were amplified by multiclamp 700B and digitized by Digidata 1440 (Molecular Devices). The recording electrode was pulled from a borosilicate glass pipette (3-5 MΩ) using an electrode puller (P-1000; Sutter Instruments) and filled with a K-gluconate-based internal solution containing (in mM) 120 K-gluconate, 20 KCl, 10 HEPES, 2 MgCl2, 4 Na2ATP, 0.5 TrisGTP, 14 phosphocreatine, osmolarity 290 mOsm, and pH 7.3. The recording glass pipettes were patched onto the soma region of pyramidal cells. Voltages for liquid junction potential (+10 mV) were not corrected online. All current-clamp recordings were low-pass filtered at 10 kHz and sampled at 50 kHz. Series resistance was compensated and only series resistance <20 MΩ was included in the data set. Pipette capacitance was ˜99% compensated. The method for measuring active intrinsic properties was based on a modified version of Kaphzan H et al., 2013. For recordings with GSK2606414, 100 nM inhibitor was applied in the pipette solution, and recordings were performed as described above.
Resting membrane potential (RMP) was measured 5 min after the seal was ruptured. The I-V (current-voltage) relationship used to calculate number of action potentials obtained by injection of 1 s pulses (−150 to +300 pA in 50 pA increments).
Input resistance (Rin) was calculated from the voltage response to a hyperpolarizing current pulse (−150 pA). For measurements of a single AP, after initial assessment of the current, which was required to induce an action potential at 15 ms from the start of the current injection with large steps (50 pA), we injected a series of brief depolarizing currents for 10 ms in steps of 10 pA increments. The first action potential that appeared on the 5 ms time point was analyzed. A curve of dV/dt was created for that trace, and the 30 V/s point in the rising slope of the action potential was considered as threshold (Kaphzan et al., 2013).
AP amplitude was measured from the equipotential point of the threshold to the spike peak, while AP duration was measured at the point of half-amplitude of the spike. The mAHP (medium after-hyperpolarization) was measured using prolonged (3 s), high-amplitude (3 nA) somatic current injections to initiate time-locked action potential trains of 50 Hz frequency and duration (10-50 Hz, 1 or 3 s) in pyramidal cells. These action potential trains generated prolonged (˜20 s) AHPs, the amplitudes and integrals of which increased with the number of action potentials in the spike train. AHP was measured from the equipotential point of the threshold to the anti-peak of the same spike (Gulledge et al., 2013).
Series resistance, input resistance, and membrane capacitance were monitored during the entire experiment. Changes in these parameters (which were monitored throughout the entire duration of the experiment) greater than 10% were criteria for exclusion of data. AU experimental analyses were performed in a blind manner; the identity of the mouse from which neurons were recorded (PERK shRNA or scrambled) was not known to the person conducting the experiments and measurements.
A general note: In patch-clamp work, channel activity is measured electrically.

Molecules are shown by their SMILES.

As to `Cn1cc(-c2ccc3c(c2)CCN3C(=O)Cc2cccc(C(F)(F)F)c2)c2c(N)ncnc21` [GSK2606414, 7-methyl-5-(1-{[3-(trifluoromethyl)phenyl]acetyl}-2,3-dihydro-1H-indol-5-yl)-7H-pyrrolo[2,3-d]pyrimidin-4-amine], the preference index in assay [1] is on record as 83%±2.2. Moreover, in assay [2] (100 nM in pipette solution, acute hippocampal slices, increased current steps), the “action potential (AP) frequency” value is “increased”. In assay [2] (100 nM in pipette solution), the AP amplitude entry is “longer”, the AP mid width result is recorded as “wider”, the AP threshold result is “hyperpolarized” and the input resistance entry is “Neither resting membrane potential (RMP) nor input resistance was changed”. Further, in assay [2] (100 nM in pipette solution), the “resting membrane potential (RMP)” value is reported as “Neither resting membrane potential (RMP) nor input resistance was changed”. The mAHP entry in assay [2] (100 nM, acute hippocampal slices) is given as “significantly reduced”.
